Experimental data taken from patent US20110064833A1, “SYNERGISTIC HERBAL COMPOSITION AND PROCESS OF PREPARATION THEREOF” (priority 2007, published 2011).

System: streptozotocin diabetic rats
Assay: In-vivo efficacy screening in streptozotocin diabetic Sprague Dawley rats, 35 days oral gavage
Source text: The number of animals per dose group is five and is kept for examination and acclimatization for a week period at the start of the study. The total number of dose groups is six along with vehicle control. The different groups are G1-Vehicle control, G2-Diabetic control, G-3 Diabetic animals treated with Pioglitazone (Standard anti-diabetic drug). […] Blood is collection under CO2 anesthesia by retro orbital (ROP) plexus method and FBG analysis. Rats are fed with 5% glucose water for two days before STZ injection and are fasted for 12 hours before administering streptozotocin. The rats are injected intra-peritoneal with 45 mg/kg-body weight of streptozotocin in a citrate buffer ph: 4.5 and allowed for week recovery. Rats are fasted for 12 hours after 7th day of STZ injection and blood collected in heparin as the anti-coagulant, under CO2 anesthesia and analyzed for FBG. Rats that have the range of FBG beyond 250 mg/dl and above are considered for the study.
Selection, randomization and grouping of the animals into different treatment groups with the FBG range of 250 mg/dl is undertaken as above. […] The dosage volume administered to individual rat was adjusted according to its most recently recorded body weights. […] All signs of ill health, together with any behavioral changes or reaction to treatment are recorded for individual animals. […]

SMILES | increase in fasting blood glucose from baseline at the end of 35 days (glebenclamide, dose not stated) | increase in fasting blood glucose from baseline at the end of 35 days (pioglitazone 20 mg/kg-body weight)
COc1ccc(Cl)cc1C(=O)NCCc1ccc(S(=O)(=O)NC(=O)NC2CCCCC2)cc1 [glebenclamide] | about 110% | –
CCc1ccc(CCOc2ccc(CC3SC(=O)NC3=O)cc2)nc1 (centres unmarked) [pioglitazone] | – | about 98%
